{
  "source": "patent EP0063075A1",
  "about": "“(2,6-Dimethoxy-4-hydroxyphenyl)-(3-piperidinopropyl) ketone and its salts, its use in therapeutic preparations and process for its production” (LABORATOIRE L. LAFON Société anonyme dite:, priority 1981, dated 1982)",
  "key": {"[1]": {"conditions": "result in words, compared with LL 1656; cited from earlier work"}, "[2]": {"system": "chien mâle anesthésié au nembutal", "assay": "Peripheral vasodilator properties, intravenous administration in the anaesthetised dog", "format": "in vivo", "protocol": "(§1) Les propriétés vasodilatatrices périphériques ont été étudiées chez le chien mâle anesthésié au nembutal (6 animaux par dose et par produit). Les produits à comparer sont administrés en solution dans du sérum physiologique sous un volume de 6 ml/animal par voie intraveineuse (perfusion de 1 ml/min) et sous un volume de 10 ml/animal par voie intraduodénale. Par rapport aux témoins (les mêmes animaux ne recevant que le sérum physiologique), on mesure trois paramètres : la pression artérielle moyenne (exprimée en mm Hg; mm Hg correspond à 1,333224 x 10^2 Pa), la fréquence cardiaque (exprimée en battements/minute) et le débit artériel fémoral (exprimé en ml/min). Les variations de ces paramètres exprimées en pourcentages, par rapport aux témoins, sont données dans les tableaux II (administration intraveineuse) et III (administration intraduodénale) ci-après.\n(§2) La vasodilatation périphérique se traduit dans ces circonstances par une augmentation du débit artériel fémoral. On dit, selon les présentes conditions opératoires, qu'un produit est un agent vasodilatateur périphérique si le débit artériel fémoral augmente d'au moins 30% par administration intraveineuse, d'une part, et par administration intraduodénale, d'autre part, sans que la variation de la pression artérielle soit supérieure à +10% ou inférieure à -10%."}, "[3]": {"assay": "Solubility in water (description of the isolated product)", "format": "physicochemical", "conditions": "result in words"}, "[4]": {"system": "chien mâle anesthésié au nembutal", "assay": "Peripheral vasodilator properties, intraduodenal administration in the anaesthetised dog", "format": "in vivo", "conditions": "for effet sur la pression artérielle par voie I.D. / effet vasodilatateur par voie I.D.: result in words", "protocol": "as §1, §2"}, "[5]": {"conditions": "as indicated in British patent n° 1.325.192; cited from earlier work"}, "[6]": {"system": "escarres", "assay": "Clinical use in the treatment of bedsores", "format": "in vivo, homme", "conditions": "in man"}},
  "data": [
    {"compound": "O=C(CCCN1CCCC1)c1c(O)cc(O)cc1O", "note": "[(2,4,6-trihydroxyphényl)-(3-pyrrolidinopropyl)-cétone]", "values": [
      {"measurement": "propriétés vasodilatatrices périphériques", "setting": "[1]", "value": "aussi intéressants que le LL 1656"}
    ]},
    {"compound": "COc1cc(O)c(C(=O)CCCN2CCCC2)c(OC)c1", "note": "[(2,4-diméthoxy-6-hydroxyphényl)-(3-pyrrolidinopropyl)-cétone]", "values": [
      {"measurement": "propriétés vasodilatatrices périphériques", "setting": "[1]", "value": "aussi intéressants que le LL 1656"}
    ]},
    {"compound": "COc1cc(O)cc(OC)c1C(=O)CCCN1CCCC1", "note": "[(2,6-diméthoxy-4-hydroxy-phényl)-(3-pyrrolidinopropyl)-cétone]", "values": [
      {"measurement": "propriétés vasodilatatrices périphériques", "setting": "[1]", "value": "dépourvus d'effets vasodilatateurs périphériques"}
    ]},
    {"compound": "COc1cc(O)c(C(=O)CCCN2CCCCC2)c(OC)c1", "note": "[CP1, chlorhydratede (2,4-diméthoxy-6-hydroxyphényl)-(3-pipé-ridinopropyl)-cétone]", "values": [
      {"measurement": "effet vasodilatateur par voie I.V.", "setting": "[2]; result in words, i.v. route", "value": "très faiblement vasodilatateur"},
      {"measurement": "solubilité dans l'eau", "setting": "[3]", "value": "très soluble dans l'eau"},
      {"measurement": "diminution de la pression artérielle par voie I.D.", "setting": "[4]; intraduodenal route", "value": "> 10", "unit": "%"},
      {"measurement": "effet sur la pression artérielle par voie I.D.", "setting": "[4]; intraduodenal route", "value": "effet hypotenseur"},
      {"measurement": "effet vasodilatateur par voie I.D.", "setting": "[4]; intraduodenal route", "value": "n'a guère d'effet vasodilatateur"}
    ]},
    {"compound": "O=C(CCCN1CCCCC1)c1c(O)cc(O)cc1O", "note": "[CP2, chlorhydratede (2,4,6-trihydroxyphényl)-(3-pipéridinopropyl)-cétone]", "values": [
      {"measurement": "variation du débit artériel fémoral par voie I.D.", "setting": "[4]; intraduodenal route", "value": "+17%"},
      {"measurement": "effet sur la pression artérielle par voie I.D.", "setting": "[4]; intraduodenal route", "value": "effet hypotenseur"},
      {"measurement": "effet vasodilatateur par voie I.D.", "setting": "[4]; intraduodenal route", "value": "pratiquement dépourvu d'effet vasodilatateur"},
      {"measurement": "dose à partir de laquelle le produit est vasodilatateur par voie I.V.", "setting": "[5]", "value": "≥ 5", "unit": "mg/kg"}
    ]},
    {"compound": "COc1ccc(C(=O)CN2CCCCC2)c(OC)c1", "note": "[CP5, (2,4-dimé-thoxyphényl)-(pipéridinométhyl)-cétone]", "values": [
      {"measurement": "change in vivo at 20 mg/kg", "setting": "[4]; Canis lupus familiaris, intraduodenal, dose 20 mg/kg, versus controls, read-out: Variations en % Pression artérielle", "value": 0, "unit": "%"}
    ]},
    {"compound": "COc1cc(OC)c(C(=O)CCCN2CCCC2)c(OC)c1", "note": "[CP7, chlorhydratede (2,4,6-triméthoxyphényl)-(3-pyrrolidinopropyl)-cétone]", "values": [
      {"measurement": "change in vivo at 6 mg/kg", "setting": "[2]; Canis lupus familiaris, intravenous, dose 6 mg/kg, versus controls, read-out: Variations en % Fréquence cardiaque", "value": 0, "unit": "%"},
      {"measurement": "change in vivo at 1.5 mg/kg", "setting": "[2]; Canis lupus familiaris, intravenous, dose 1,5 mg/kg, versus controls, read-out: Variations en % Pression artérielle", "value": 0, "unit": "%"}
    ]},
    {"compound": "COc1cc(O)cc(OC)c1C(=O)CCCN1CCCCC1", "note": "[Exemple 1, chlorhydratede (2,6-diméthoxy-4-hydroxyphényl)-(3-pipéridinopropyl)-cétone]", "values": [
      {"measurement": "activité en tant que vasodilatateur périphérique (comparaison)", "setting": "[2]; text conclusion from tables II and III (i.v. and i.d.)", "value": "aussi actif que le produit de référence CP7"},
      {"measurement": "variation du débit artériel fémoral par voie I.V.", "setting": "[2]; text summary over all i.v. doses (toujours)", "value": "> +30%"},
      {"measurement": "solubilité dans l'eau", "setting": "[3]", "value": "soluble dans l'eau"},
      {"measurement": "variation du débit artériel fémoral par voie I.D.", "setting": "[4]; intraduodenal route", "value": "> +30%"},
      {"measurement": "résultats dans le traitement des escarres", "setting": "[6]", "value": "bons résultats"}
    ]},
    {"compound": "(2,6-dihydroxy-4-méthoxyphényl)- ou (2,4-dihydroxy-6-méthoxyphényl)-(3-pyrrolidinopropyl)-cétone", "values": [
      {"measurement": "propriétés vasodilatatrices périphériques", "setting": "[1]", "value": "dépourvus d'effets vasodilatateurs périphériques"}
    ]}
  ]
}
